Entries after “also recorded” stand apart in the source; their conditions may differ.
Columns and labels:
[1] = test system: rats; settings: cited from earlier work; for protection from toxicity induced by B10: pre-treatment prior to administration of B10, rats
[2] = molecular target: T1, wild-type human LRRK2 protein (Homo sapiens, UniProt Q5S007); test: Western blot of overexpressed wild-type LRRK2 in transfected HeLa cells; assay type: cell-based
T1 construct: expressed in transfected cells; host or cells: HeLa
Procedure: (§1) HeLa cells overexpressing wild-type or mutant human LRRK2 protein and N9 cells expressing endogenous LRRK2 protein were treated with hexachlorophene (labeled as B10 in FIGS. 1 and 2) for 24 hours.
(§2) HeLa cells were grown in DMEM with 10% FBS and 1% penicillin and streptomycin. Cells were transfected with constructs for LRRK2 and the G2019S mutant using Lipofectamine 2000. HeLa cells were used due to the ease of transfection with LRRK2 and its mutants.
(§3) Samples were harvested by using MPER mammalian extraction buffer (Pierce, Thermo Scientific) containing protease and phosphatase inhibitors. After protein estimation using a BCA kit (Pierce, Thermo Scientific), equal amounts of protein from each sample was subjected to gel electrophoresis and western blotting. Phospho (p-) and Total (T-) LRRK2 (abcam) and GAPDH (Meridian Life Sciences) antibodies were used to detect phospho and total LRRK2 and GAPDH, respectively. Analysis of changes in the LRRK2 level was performed using Scion Image software.

[3] = molecular target: T2, mutant (G2019S) LRRK2 (Homo sapiens, UniProt Q5S007, G2019S); test: Western blot of overexpressed mutant (G2019S) LRRK2 in transfected HeLa cells; assay type: cell-based; settings: 1 μM, 24 hours, vs vehicle DMSO control
T2 construct: expressed in transfected cells; host or cells: HeLa
Procedure: as §1, §2, §3

[4] = test system: synuclein; test: Synuclein level in HeLa cells (selectivity control); assay type: cell-based; settings: 1 μM
[5] = molecular target: T3, endogenous LRRK2 protein (Mus musculus, UniProt Q5S006); test: Western blot of endogenous LRRK2 in N9 cells; assay type: cell-based; settings: 1 μM, 24 hours
T3 construct: N9 cells were used because they express high levels of endogenous LRRK2; endogenous in cells; host or cells: N9
Procedure: as §1
N9 cells were grown in DMEM supplemented with 10% FBS, 1% penicillin and streptomycin, and 2% L-glutamine. N9 cells were used because they express high levels of endogenous LRRK2. They are very difficult to transfect and were only used to study the effect of hexachlorophene on wild-type LRRK2.
as §3

[6] = test system: HeLa cells
[7] = test system: N9 cells
[8] = test system: rats; settings: oral; cited from earlier work
[9] = dose of about 10 mg/kg, transgenic TDP43 mouse model; cited from earlier work
[10] = test system: Wnt-β-catenin signaling pathway; settings: B lymphoma cells; cited from earlier work
[11] = molecular target: amyloid beta (Aβ) (Homo sapiens, UniProt P05067); settings: cited from earlier work
[12] = test system: primary neuronal cultures; settings: cited from earlier work
[13] = test system: LRRK2; settings: cited from earlier work

T1 sequence (Q5S007 whole entry): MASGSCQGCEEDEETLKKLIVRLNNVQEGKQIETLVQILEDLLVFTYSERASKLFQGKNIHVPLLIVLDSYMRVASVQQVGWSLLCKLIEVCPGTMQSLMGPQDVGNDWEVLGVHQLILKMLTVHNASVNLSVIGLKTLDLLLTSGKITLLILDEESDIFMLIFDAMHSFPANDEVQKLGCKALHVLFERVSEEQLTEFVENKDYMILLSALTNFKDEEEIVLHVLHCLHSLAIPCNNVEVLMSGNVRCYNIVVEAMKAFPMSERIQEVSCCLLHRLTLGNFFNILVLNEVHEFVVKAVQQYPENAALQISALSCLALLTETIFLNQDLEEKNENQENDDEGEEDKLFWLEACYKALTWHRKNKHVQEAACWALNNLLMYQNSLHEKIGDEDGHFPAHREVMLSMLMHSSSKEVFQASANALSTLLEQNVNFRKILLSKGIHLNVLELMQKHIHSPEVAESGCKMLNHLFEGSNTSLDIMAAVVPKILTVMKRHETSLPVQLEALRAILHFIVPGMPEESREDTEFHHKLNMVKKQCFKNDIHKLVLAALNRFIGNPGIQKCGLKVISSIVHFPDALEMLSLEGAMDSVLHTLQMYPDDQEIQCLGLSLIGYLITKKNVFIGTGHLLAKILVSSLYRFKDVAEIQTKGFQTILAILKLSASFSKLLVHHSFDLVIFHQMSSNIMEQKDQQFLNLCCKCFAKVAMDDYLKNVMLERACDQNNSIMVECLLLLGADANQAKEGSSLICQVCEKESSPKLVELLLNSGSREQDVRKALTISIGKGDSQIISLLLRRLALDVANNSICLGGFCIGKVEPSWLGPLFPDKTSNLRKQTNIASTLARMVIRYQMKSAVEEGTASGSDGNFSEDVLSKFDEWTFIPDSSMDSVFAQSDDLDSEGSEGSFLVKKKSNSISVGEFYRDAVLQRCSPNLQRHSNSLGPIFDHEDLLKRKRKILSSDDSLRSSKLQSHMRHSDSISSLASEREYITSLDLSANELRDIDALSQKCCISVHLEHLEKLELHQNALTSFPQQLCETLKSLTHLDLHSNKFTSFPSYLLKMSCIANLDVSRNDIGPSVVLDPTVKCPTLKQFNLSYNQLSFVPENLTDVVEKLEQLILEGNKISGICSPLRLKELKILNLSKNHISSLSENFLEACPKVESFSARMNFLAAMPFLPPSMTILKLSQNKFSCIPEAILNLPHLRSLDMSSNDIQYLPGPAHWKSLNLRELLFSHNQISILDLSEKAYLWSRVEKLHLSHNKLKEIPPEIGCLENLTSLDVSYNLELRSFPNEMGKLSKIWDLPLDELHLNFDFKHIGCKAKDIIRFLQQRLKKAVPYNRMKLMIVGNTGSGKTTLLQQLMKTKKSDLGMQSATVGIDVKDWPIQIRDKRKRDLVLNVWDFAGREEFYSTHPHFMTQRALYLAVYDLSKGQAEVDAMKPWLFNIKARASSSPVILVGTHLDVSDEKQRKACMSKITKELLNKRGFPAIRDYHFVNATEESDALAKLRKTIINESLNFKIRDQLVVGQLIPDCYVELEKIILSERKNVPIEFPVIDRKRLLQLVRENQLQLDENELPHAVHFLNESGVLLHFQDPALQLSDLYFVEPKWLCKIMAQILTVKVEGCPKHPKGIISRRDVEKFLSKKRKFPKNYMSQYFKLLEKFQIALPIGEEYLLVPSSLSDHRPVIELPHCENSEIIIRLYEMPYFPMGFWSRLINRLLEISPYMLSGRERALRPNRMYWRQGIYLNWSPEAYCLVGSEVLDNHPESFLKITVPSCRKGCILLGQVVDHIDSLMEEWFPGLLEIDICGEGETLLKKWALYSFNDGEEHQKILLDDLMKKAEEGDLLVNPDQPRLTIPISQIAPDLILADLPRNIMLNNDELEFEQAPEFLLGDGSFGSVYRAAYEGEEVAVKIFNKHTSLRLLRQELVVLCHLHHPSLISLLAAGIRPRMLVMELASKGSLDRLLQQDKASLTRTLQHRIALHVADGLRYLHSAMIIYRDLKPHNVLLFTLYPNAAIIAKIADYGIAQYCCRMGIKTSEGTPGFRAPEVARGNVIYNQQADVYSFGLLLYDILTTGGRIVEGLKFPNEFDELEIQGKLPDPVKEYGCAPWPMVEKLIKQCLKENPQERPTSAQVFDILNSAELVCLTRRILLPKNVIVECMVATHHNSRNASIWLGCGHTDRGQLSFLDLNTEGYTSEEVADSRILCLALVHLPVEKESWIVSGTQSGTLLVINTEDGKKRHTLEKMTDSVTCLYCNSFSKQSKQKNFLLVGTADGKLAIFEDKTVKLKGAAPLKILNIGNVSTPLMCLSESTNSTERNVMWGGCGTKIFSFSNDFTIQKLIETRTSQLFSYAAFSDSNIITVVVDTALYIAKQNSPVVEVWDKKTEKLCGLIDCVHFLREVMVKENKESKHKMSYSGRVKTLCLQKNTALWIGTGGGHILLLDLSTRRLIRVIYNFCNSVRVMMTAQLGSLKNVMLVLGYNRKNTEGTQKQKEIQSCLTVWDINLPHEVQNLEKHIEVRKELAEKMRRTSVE
T3 sequence (Q5S006 whole entry): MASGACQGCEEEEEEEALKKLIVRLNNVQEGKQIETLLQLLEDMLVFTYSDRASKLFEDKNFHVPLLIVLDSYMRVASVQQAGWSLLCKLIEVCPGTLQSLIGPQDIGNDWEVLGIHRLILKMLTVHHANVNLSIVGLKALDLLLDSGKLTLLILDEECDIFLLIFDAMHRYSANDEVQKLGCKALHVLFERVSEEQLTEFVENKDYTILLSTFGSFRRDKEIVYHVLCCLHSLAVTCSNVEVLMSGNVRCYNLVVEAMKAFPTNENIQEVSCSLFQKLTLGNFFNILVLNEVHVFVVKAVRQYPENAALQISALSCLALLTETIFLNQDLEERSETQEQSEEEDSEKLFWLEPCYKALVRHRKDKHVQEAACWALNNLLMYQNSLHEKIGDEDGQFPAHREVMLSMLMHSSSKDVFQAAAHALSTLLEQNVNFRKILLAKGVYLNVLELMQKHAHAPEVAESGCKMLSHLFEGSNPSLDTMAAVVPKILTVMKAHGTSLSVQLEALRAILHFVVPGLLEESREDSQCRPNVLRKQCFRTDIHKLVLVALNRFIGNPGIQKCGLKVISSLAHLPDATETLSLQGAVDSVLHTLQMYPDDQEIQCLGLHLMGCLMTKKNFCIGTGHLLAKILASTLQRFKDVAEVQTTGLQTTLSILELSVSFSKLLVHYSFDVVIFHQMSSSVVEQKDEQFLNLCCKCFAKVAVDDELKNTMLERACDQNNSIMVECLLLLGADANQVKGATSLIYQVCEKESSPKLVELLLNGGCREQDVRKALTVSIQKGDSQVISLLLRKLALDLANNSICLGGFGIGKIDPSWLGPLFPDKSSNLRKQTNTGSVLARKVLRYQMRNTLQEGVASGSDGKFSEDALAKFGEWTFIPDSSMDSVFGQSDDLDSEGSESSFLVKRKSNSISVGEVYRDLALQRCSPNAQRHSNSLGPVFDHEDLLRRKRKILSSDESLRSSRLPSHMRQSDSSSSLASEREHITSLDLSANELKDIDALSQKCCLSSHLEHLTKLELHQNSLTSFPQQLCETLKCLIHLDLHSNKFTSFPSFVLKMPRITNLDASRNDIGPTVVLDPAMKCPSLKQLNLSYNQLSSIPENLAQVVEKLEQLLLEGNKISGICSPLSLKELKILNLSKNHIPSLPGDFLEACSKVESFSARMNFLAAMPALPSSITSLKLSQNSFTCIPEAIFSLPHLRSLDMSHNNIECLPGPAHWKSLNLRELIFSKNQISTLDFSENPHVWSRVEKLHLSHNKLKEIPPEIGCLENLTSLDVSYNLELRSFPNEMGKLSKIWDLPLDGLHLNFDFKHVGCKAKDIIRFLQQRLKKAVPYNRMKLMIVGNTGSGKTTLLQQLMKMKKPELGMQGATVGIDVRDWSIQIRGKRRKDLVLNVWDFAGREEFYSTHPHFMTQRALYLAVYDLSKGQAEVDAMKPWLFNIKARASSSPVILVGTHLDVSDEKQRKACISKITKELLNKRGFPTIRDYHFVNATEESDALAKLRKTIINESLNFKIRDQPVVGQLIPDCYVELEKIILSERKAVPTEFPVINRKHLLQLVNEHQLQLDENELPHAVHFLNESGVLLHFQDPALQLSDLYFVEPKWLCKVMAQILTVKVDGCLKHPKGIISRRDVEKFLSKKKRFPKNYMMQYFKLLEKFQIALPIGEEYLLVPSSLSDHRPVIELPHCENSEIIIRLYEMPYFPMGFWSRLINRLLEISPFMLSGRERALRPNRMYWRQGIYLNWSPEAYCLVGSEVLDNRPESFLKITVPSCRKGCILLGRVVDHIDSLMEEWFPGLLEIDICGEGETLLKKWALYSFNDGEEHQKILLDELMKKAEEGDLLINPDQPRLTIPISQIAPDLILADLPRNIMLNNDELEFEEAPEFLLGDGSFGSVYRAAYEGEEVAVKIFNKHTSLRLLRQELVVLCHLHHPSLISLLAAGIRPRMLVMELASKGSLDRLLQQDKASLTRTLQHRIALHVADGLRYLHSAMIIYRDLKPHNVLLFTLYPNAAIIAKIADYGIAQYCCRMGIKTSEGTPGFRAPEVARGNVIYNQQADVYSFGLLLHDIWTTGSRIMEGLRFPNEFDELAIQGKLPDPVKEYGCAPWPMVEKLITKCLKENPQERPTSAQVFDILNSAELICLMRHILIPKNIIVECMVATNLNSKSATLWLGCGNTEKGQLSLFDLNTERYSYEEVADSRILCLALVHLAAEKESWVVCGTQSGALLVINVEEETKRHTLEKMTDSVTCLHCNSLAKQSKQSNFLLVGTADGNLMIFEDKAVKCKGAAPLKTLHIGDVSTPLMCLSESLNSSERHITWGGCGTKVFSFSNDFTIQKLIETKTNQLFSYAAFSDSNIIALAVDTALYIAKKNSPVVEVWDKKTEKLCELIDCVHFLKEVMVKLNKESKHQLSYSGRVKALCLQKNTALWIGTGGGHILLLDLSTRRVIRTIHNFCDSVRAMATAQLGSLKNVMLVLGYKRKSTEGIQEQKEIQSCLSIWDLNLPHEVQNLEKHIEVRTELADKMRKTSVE
T2 sequence (Q5S007 whole entry G2019S): as the sequence (Q5S007 whole entry) above, with G2019S counted along it
Chain of amyloid beta (Aβ) (P05067 672-713 limits assumed): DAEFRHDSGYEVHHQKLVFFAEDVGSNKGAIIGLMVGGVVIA

SMILES: CCCC(C(=O)OCCN(CC)CC)(c1ccccc1)c1ccccc1.Cl [SKF-525A, 2-diethylaminoethyl-2,2-diphenylvalerate-Hcl]
- protective effect by route of administration ([1]; oral vs ip administration of the pre-treatment agent): only occurred upon oral administration
- protection from toxicity induced by B10 [1]: lessened toxicity

SMILES: Oc1c(Cl)cc(Cl)c(Cl)c1Cc1c(O)c(Cl)cc(Cl)c1Cl [hexachlorophene, Hexachlorophene]
- overexpressed wild-type LRRK2 level ([2]; HeLa cells, 1 μM, 24 hours, vs vehicle DMSO control): selectively reduces; also recorded: decreased
- period of maximal effect on LRRK2 levels ([2]; cell line not stated (HeLa and N9 cells used)): 24 h
- overexpressed mutant (G2019S) LRRK2 level [3]: selectively reduces; also recorded: decreased
- effect on synuclein [4]: does not affect
- endogenous pLRRK2 level [5]: reduces
- expression of endogenous LRRK2 [5]: reduces
- cell death (LDH release) [6]: minimal amounts of cell death
- cell death (LDH release) [7]: minimal amounts of cell death
- LD50 [8]: 66 mg/kg
- brain permeability [9]: 50%
- effect on Wnt-β-catenin signaling pathway [10]: inhibit
- effect on Aβ fibril formation [11]: inhibit
- protection from Aβ-induced toxicity [12]: protect

SMILES: CCOc1ccc2c(c1)C(C)=CC(C)(C)N2 [ethoxyquin]
- protection from toxicity induced by B10 [1]: protects

SMILES: CC1=C(CO)C(=O)O[C@@H]([C@@H](C)[C@H]2CC[C@H]3[C@@H]4C[C@H]5O[C@]56[C@@H](O)C=CC(=O)[C@]6(C)[C@H]4CC[C@]23C)C1 [withaferin A]
- clearance of LRRK2 ([13]; WA in the presence of celastrol, additive manner): enhanced
- LRRK2 levels in cells ([13]; compound alone, dose and time dependent manner): reduced

SMILES: C[N+](C)(C)C[C@H](O)CC(=O)[O-] [L-carnitine]
- protection from toxicity induced by B10 [1]: protected

Source: US9750753B1, “Method of treating diseases associated with LRRK2 mutation using hexachlorophene” (University of South Florida, priority 2014, dated 2017)
